{"source": "patent US20110159118A1", "about": "“Screening Method (Metabolite Grid) for Therapeutic Extracts and Molecules for Diabetes” (priority 2000, published 2011)", "origin": "cited, not measured here", "key": {"[1]": {"system": "alloxan diabetic rats"}, "[2]": {"system": "hyperglycemic rats", "conditions": "effect comparable to metformin"}, "[3]": {"system": "streptozotocin-diabetic mice", "conditions": "doses of 3.4-13.4 mg/kg, 6 h after the administration"}}, "data": [{"molecule": "Oc1cc(O)c2c(c1)O[C@H](c1ccc(O)c(O)c1)[C@H](O)C2", "note": "[(−)-Epicatechin, (−)-epicatechin]", "values": [{"measurement": "blood glucose levels, control versus treated rats", "setting": "[1]; 30 mg/kg, i.p., twice daily for 3 days, begun 92 hr after alloxan", "value": "no significant difference"}, {"measurement": "hyperglycemia", "setting": "[1]; given before or within 24 hr after the dose of alloxan", "value": "reverse hyperglycemia"}]}, {"molecule": "COc1cc(O)cc2c1C(=O)C(O)(Cc1ccc(O)cc1)O2", "note": "(stereo not shown) [Marsupsin, marsupsin]", "values": [{"measurement": "blood glucose level", "setting": "[2]", "value": "significantly lowered"}]}, {"molecule": "gymnemic acid IV [Gymnemic acids]", "values": [{"measurement": "reduced the blood glucose levels", "setting": "[3]", "value": "13.5-60.0%"}]}]}
